Reference: ChEMBL document CHEMBL1201862, “PubChem BioAssay data set” (2004)
The source made the active and inactive calls.

What was measured:
[1] = biological target: T1, Heat shock factor protein 1 (Mus musculus, UniProt P38532); assay: decrease of HSF1-responsive luciferase luminescence – cell-based, NIH3T3, dose retest, confirmation (AID 2382); format: functional;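 further: NIH3T3 fibroblasts with HSF1-driven luciferase reporter stressed by proteasome inhibitor MG132; luminescence from HSF1-driven luciferase expression after 8 hours of MG132 stress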
T1 sequence (P38532 whole entry): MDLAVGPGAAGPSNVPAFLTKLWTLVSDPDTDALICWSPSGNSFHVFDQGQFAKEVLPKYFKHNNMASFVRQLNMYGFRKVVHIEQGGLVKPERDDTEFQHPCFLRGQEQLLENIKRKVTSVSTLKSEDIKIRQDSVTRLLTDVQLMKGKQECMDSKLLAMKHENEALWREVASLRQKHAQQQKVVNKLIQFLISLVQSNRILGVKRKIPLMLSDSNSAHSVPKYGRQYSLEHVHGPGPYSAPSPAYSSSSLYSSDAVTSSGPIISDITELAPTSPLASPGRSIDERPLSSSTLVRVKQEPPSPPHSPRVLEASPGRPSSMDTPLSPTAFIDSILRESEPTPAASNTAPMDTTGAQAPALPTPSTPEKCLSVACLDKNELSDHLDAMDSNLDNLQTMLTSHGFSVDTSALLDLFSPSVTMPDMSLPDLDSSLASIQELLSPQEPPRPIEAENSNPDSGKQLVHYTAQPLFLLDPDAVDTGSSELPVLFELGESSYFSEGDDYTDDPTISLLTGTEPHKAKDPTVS

[2] = biological target: Cytochrome P450 3A4 (Homo sapiens, UniProt P08684);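 further: CYP3A4 tested as one member of a cytochrome P450 panel screen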
[3] = biological target: Cytochrome P450 2C9 (Homo sapiens, UniProt P11712)
[4] = biological target: Cytochrome P450 2C19 (Homo sapiens, UniProt P33261); assay: Cytochrome panel assay with activity outcomes. Panel member name: p450-cyp2c19 Compounds with AC50 equal or less than 10 uM are considered active; format: functional
[5] = Trypanosoma cruzi growth suppression in host cells – NIH3T3 host cells, beta-gal luminescence, confirmation (AID 2044); format: functional, cell-based;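 further: intracellular parasites grown in NIH/3T3 mouse fibroblasts as host cells; luminescent beta-galactosidase reporter signal from transgenic T. cruzi replicating inside host cells; inhibitors lower the luminescence signal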
[6] = NIH3T3 cell viability loss – ATP luminescence, mouse fibroblasts, counter-screen, dose response (AID 2010); format: functional, cell-based;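 further: cells exposed to compound for about 90 hours before reading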

Sequence of Cytochrome P450 2C9 (P11712 whole entry): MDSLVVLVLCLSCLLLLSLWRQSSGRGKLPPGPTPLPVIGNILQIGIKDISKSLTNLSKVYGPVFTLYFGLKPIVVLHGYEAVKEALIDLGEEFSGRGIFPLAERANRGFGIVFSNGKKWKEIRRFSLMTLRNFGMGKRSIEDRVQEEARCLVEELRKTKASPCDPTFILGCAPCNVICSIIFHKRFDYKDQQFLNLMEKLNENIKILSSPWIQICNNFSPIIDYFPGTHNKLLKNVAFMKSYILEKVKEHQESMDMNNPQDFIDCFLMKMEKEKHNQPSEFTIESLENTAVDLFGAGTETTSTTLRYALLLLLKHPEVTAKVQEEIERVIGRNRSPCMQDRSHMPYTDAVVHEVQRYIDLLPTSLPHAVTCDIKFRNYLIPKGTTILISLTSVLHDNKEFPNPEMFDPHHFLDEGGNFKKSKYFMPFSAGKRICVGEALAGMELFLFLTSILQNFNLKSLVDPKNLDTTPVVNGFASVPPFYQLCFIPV
Sequence of Cytochrome P450 2C19 (P33261 whole entry): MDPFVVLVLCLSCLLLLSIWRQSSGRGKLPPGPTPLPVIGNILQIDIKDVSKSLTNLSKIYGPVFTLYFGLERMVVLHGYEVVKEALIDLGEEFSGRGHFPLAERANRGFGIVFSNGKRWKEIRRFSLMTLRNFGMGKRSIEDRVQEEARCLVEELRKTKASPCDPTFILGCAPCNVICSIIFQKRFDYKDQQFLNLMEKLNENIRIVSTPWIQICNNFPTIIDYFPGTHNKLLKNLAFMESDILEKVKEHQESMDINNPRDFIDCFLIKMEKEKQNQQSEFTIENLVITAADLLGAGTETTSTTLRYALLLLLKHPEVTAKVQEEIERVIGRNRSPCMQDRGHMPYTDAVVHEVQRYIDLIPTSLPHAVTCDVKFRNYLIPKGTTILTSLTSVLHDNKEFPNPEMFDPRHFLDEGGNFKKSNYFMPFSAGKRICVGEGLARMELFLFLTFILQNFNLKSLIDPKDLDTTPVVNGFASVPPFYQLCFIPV
Sequence of Cytochrome P450 3A4 (P08684 whole entry): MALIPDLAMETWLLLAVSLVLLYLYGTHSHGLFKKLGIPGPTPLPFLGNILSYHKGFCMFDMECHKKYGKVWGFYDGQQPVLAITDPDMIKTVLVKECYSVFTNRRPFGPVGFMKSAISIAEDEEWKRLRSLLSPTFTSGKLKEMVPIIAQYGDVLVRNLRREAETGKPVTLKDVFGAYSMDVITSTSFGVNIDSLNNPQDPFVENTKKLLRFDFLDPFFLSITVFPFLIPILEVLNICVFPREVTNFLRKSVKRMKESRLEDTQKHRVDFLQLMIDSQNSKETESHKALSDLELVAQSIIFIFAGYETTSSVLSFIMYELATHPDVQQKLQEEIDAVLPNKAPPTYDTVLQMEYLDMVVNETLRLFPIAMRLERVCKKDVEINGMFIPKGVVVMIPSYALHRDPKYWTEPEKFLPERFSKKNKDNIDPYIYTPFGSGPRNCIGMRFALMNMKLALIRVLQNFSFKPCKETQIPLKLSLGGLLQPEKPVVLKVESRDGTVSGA

COc1ccc(/C=C/C(=O)Oc2ccc(/C=N/NC(=O)COc3c(C)cccc3C)cc2)cc1
EC50 [1]: > 195 µM (not active)

Cc1ccc(C(=N)NOC(=O)Cc2cccs2)cc1
AC50 [2]: 28.2 µM (inconclusive)

COc1ccc2[nH]cc(CCNc3ccnc(-c4cccc(NS(C)(=O)=O)c4)n3)c2c1
AC50 [2]: 2.51 µM (inconclusive) | AC50 [3]: 0.126 µM (inconclusive)

CC(=O)SCC[N+](C)(C)C [ACETYLTHIOCHOLINE]
AC50 [4]: inconclusive

COc1ccccc1NC(=O)C1CCN(C(=O)C2CC(=O)N(c3ccc(C)cc3)C2)CC1 (stereo not given)
EC50 [1]: > 195 µM (not active)

Cc1nc(N=C(N)NS(=O)(=O)c2ccc([N+](=O)[O-])cc2)nc2ccccc12
EC50 [5]: 0.452 µM (active) | EC50 [6]: 24.6 µM (active)

CCOc1ccc(OCC)c(NC(=O)C2CCCN(S(=O)(=O)c3cccs3)C2)c1 (stereo not given)
AC50 ([4]; read-out: AC50): 2.82 µM (inconclusive) | AC50 [3]: 2.51 µM (inconclusive)

COn1c(-c2ccccc2)nc2c1CCc1nonc1-2
AC50 [2]: 31.6 µM (inconclusive) | AC50 [3]: 25.1 µM (inconclusive)

CCCn1c(NC(=O)c2ccc(F)cc2)nc2ccccc21
EC50 [5]: 3 µM (active) | EC50 [6]: > 60 µM (not active)

N#Cc1ccccc1NC(=O)c1ccccc1OCC(=O)Nc1ccc2c(c1)oc1ccccc12
EC50 [5]: 2.85 µM (active) | EC50 [6]: 47.3 µM (active)

CCN(CC)C(=O)C1CCCN(Cc2ccc(N(C)C)cc2)C1 (stereo not given)
EC50 [5]: 0.296 µM (active) | EC50 [6]: > 60 µM (not active)

COCCN(C(=O)COC(=O)/C=C/c1ccc(C(F)(F)F)cc1)c1c(N)n(Cc2ccccc2)c(=O)[nH]c1=O
EC50 [1]: > 195 µM (not active)

Clc1ccc(OCCn2ccnc2)cc1Cl
EC50 [5]: 2.49 µM (active) | EC50 [6]: > 60 µM (not active)

COCCn1c(=O)c(-c2ccc(OC)cc2)nc2cnc(OCc3ccccc3)nc21
AC50 [2]: 25.1 µM (inconclusive)

CC(=O)O[C@H]1C2=CO[C@H](C)[C@H]3C4C5=C([C@@H](O[C@H]4C)[C@@]23C(=O)[C@H]2O[C@@H]21)[C@H](O)[C@H]1O[C@@H]1C5=O
AC50 [2]: 3.98 µM (inconclusive)

CCOC(=O)c1ccc(S(=O)(=O)N2CCN(C)CC2)cc1
AC50 [3]: 39.8 µM (inconclusive)

Cn1c(=O)c(-c2ccccc2)nc2cnc(N3CCNCC3)nc21
AC50 ([4]; read-out: AC50): 39.8 µM (inconclusive) | AC50 [3]: 15.8 µM (inconclusive)

Nc1ccccc1S[C@@H](C[N+](=O)[O-])c1ccc2c(c1)OCO2
AC50 [2]: 2.51 µM (inconclusive) | AC50 [3]: 6.31 µM (inconclusive)

COc1ccc(NC(=O)Cn2c(=O)n(Cc3ccco3)c(=O)c3ccccc32)cc1
EC50 [1]: > 195 µM (not active)

O=C(c1cnccn1)N1CCC2(CCCN(c3ccccc3)C2)CC1
AC50 [3]: 39.8 µM (inconclusive)

COc1ccc(CCNC(=O)C2CCN(S(=O)(=O)N3CC(C)CC(C)C3)CC2)cc1OC (stereo not given)
AC50 [3]: 22.4 µM (inconclusive)

COc1ccc2nc3c(O)n(CCCN4CCOCC4)cnc-3c2c1
EC50 [1]: > 195 µM (not active)

CCN(CC)C(=O)C1CCCN(c2ccc([N+](=O)[O-])cc2/C=N/NC(=O)c2ccc([N+](=O)[O-])cc2)C1 (stereo not given)
EC50 [1]: > 195 µM (not active) | AC50 [2]: 2.82 µM (inconclusive)

CCOC(=O)c1cncc(C(=O)O)c1
AC50 ([4]; read-out: AC50): 31.6 µM (inconclusive)

CC(=O)OCC1=C(C(=O)O)N2C(=O)[C@@H](NC(=O)CCC[C@@H](N)C(=O)O)[C@@H]2SC1
AC50 [3]: 39.8 µM (inconclusive)

O=C(CCN1CCN(C/C=C/c2ccccc2)CC1)Nc1ccccc1
EC50 [5]: 1.95 µM (active) | EC50 [6]: > 60 µM (not active)

COc1ccccc1CN1CCCC(N2CCN(c3ccc(F)cc3)CC2)C1 (stereo not given)
EC50 [5]: 0.253 µM (active) | EC50 [6]: 10.1 µM (active)

CCN1CCCc2cc(CN(CCN3CCOCC3)C(S)=Nc3ccccc3OC)ccc21
EC50 [5]: 1.53 µM (active) | EC50 [6]: > 60 µM (not active)

CC(C)NC(=O)N1CC[C@@]2(CCCN(C(=O)c3csnn3)C2)C1
AC50 [2]: 15.8 µM (inconclusive)

COc1ccccc1CN(C)C(=O)C1COc2ccccc2O1 (stereo not given)
EC50 [1]: > 195 µM (not active)

COc1cccc(-c2csc(N3CCN(C(=S)Nc4ccccc4)CC3)n2)c1
AC50 [3]: 0.158 µM (inconclusive)

O=S(=O)(NCCCCCCc1ccccc1)c1cccc2c(Cl)cccc12
AC50 [3]: 5.01 µM (inconclusive)

Sc1c2ncnc-2ncn1CCSc1[nH]cnc2ncnc1-2
AC50 [4]: inconclusive

O=C(NCC1CCCN(Cc2ccccc2F)C1)c1cccc(C(F)(F)F)c1 (stereo not given)
EC50 [5]: 0.975 µM (active) | EC50 [6]: > 60 µM (not active)

CCCc1cc2c(n1CCO)C(C)C1CN(C(=O)c3ccccc3)C(C)(C(=O)OC)C21 (stereo not given)
AC50 ([4]; read-out: AC50): 3.16 µM (inconclusive)

O=S(=O)(NCc1ccc(C(F)(F)F)cc1)c1ccc(-n2cnnn2)cc1
EC50 [1]: > 195 µM (not active)

Cc1oc(-c2ccccc2F)nc1C[S+]([O-])CC(=O)N1CCC2(CC1)OCCO2 (stereo not given)
AC50 [3]: 20 µM (inconclusive)

Cc1c(C)n(CCCN(C)C)c2ncnc(NC3CCCCC3)c12
EC50 [5]: 0.603 µM (active) | EC50 [6]: > 60 µM (not active)

CN1CCN(c2ccc(S(=O)(=O)N3CCCCC3)cc2NC(=O)CSCc2ccccc2)CC1
EC50 [5]: 0.315 µM (active) | EC50 [6]: > 60 µM (not active)

CCCCCCN1CC(=O)N2[C@@H](Cc3c([nH]c4ccccc34)C2(C)C)C1=O
EC50 [1]: > 195 µM (not active)

O=C(COC(=O)c1cnccn1)Nc1ccc(Cl)cn1
EC50 [1]: > 195 µM (not active)

O=C(c1ccco1)N1CCN(S(=O)(=O)/C=C/c2ccccc2)CC1
EC50 [1]: > 195 µM (not active)

CCc1ccc(NC(=O)CSc2ccc(-c3cccnc3)nn2)cc1
EC50 [1]: > 195 µM (not active)

O=C(Nc1cccnc1)c1noc2c1CCCCC2
EC50 [1]: 0.288 µM (active)

Cc1ccc(CNC(=O)C2CCCN2C(=O)NCc2ccccc2)cc1 (stereo not given)
AC50 [3]: 11.2 µM (inconclusive)

CC(=O)Nc1ccc(OS(=O)(=O)c2ccccc2C)cc1
EC50 [1]: > 195 µM (not active)

COc1ccccc1CN1CCN(Cc2nc(Cc3ccccc3)no2)CC1
EC50 [5]: 0.754 µM (active) | EC50 [6]: > 30 µM (not active)

O[C@@H](COc1cccc2ccccc12)CN1CCOCC1
AC50 ([4]; read-out: AC50): 0.0501 µM (inconclusive)

CCOc1ccccc1CN1CCN(Cc2nc3ccccc3s2)CC1CCO (stereo not given)
EC50 [5]: 1.16 µM (active) | EC50 [6]: > 60 µM (not active)

O=C(NCCc1ccccn1)c1cc(C(=O)C2CCCCC2)c[nH]1
AC50 [3]: 0.158 µM (inconclusive)

CN1CCN(NC(=O)c2cc([N+](=O)[O-])cc([N+](=O)[O-])c2)CC1
EC50 [5]: 2.33 µM (active) | EC50 [6]: > 30 µM (not active)

Cc1cc([N+](=O)[O-])nn1CC(=O)NCc1nc2ccccc2[nH]1
EC50 [1]: > 195 µM (not active)

CCOP(=O)(OCC)C(NC(=O)C(Cl)Cl)C(Cl)(Cl)Cl (stereo not given)
AC50 [2]: 31.6 µM (inconclusive) | AC50 [3]: 39.8 µM (inconclusive)

N#CC1=C(N)N(c2ccc(Oc3ccccc3)cc2)C(=O)C1
EC50 [1]: > 195 µM (not active)

CN(C)c1ncc(CN2CCC(CO)(CCCc3ccccc3)CC2)s1
EC50 [5]: 0.996 µM (active) | EC50 [6]: > 60 µM (not active)

CCNc1ncc2nc(CCc3ccccc3)c(=O)n(C3CC3)c2n1
AC50 [3]: 3.98 µM (inconclusive)

Cc1ccc(C(=O)Nc2ccccc2C(=O)O)cc1S(=O)(=O)NCc1ccccc1
EC50 [1]: > 195 µM (not active)

N#CC(C#N)=C(N)/C(C#N)=C/c1ccc(O)cc1
AC50 [2]: 39.8 µM (inconclusive)

Cn1c(SC2CCCCC2=O)nnc1-c1ccncc1 (stereo not given)
AC50 [2]: 25.1 µM (inconclusive)

O=C(C1=C[C@H](c2csc3ccccc23)C[C@H](OCc2ccc(CO)cc2)O1)N1CCN(Cc2ccc3c(c2)OCO3)CC1
EC50 [5]: 0.137 µM (active) | EC50 [6]: > 60 µM (not active)

CCN(CC)C(=O)CSc1nnc(CNc2ccc(F)cc2)o1
AC50 ([4]; read-out: AC50): 22.4 µM (inconclusive) | AC50 [2]: 25.1 µM (inconclusive)
